Measured values from ChEMBL document CHEMBL1201862, “PubChem BioAssay data set” (2004).
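Step 1: Grow cells in 96-well plates. Step 2: Expose to compound for 48 hours at 5 concentrations. Step 3: Interpolate endpoints linearly; if unreached, use highest concentration. Abbreviation: GI50, concentration required for 50% inhibition of growth.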 Calls of active or inactive are those of the source. No stated cut-off is given here; in the data, active = GI50 up to about 1.1 µM and inactive = higher.

Tests used:
Test in all cases: DTP human tumour cell line panel, 48 h
MOLT-4 = tested on: MOLT-4
XF498 = tested on: XF498
NCI-H460 = tested on: NCI-H460
ACHN = tested on: ACHN
SK-MEL-28 = tested on: SK-MEL-28
Malme-3M = tested on: Malme-3M
CAKI-1 = tested on: CAKI-1
HT-29 = tested on: HT-29
DMS-273 = tested on: DMS-273
DMS-114 = tested on: DMS-114
KM-20L2 = tested on: KM-20L2
LXFL 529 = tested on: LXFL 529
TK-10 = tested on: TK-10
RPMI-8226 = tested on: RPMI-8226
DLD-1 = tested on: DLD-1
SK-OV-3 = tested on: SK-OV-3
A498 = tested on: A498
IGROV-1 = tested on: IGROV-1

Compound | GI50 (MOLT-4) | GI50 (XF498) | GI50 (NCI-H460) | GI50 (ACHN) | GI50 (SK-MEL-28) | GI50 (Malme-3M) | GI50 (CAKI-1) | GI50 (HT-29) | GI50 (DMS-273) | GI50 (DMS-114) | GI50 (KM-20L2) | GI50 (LXFL 529) | GI50 (TK-10) | GI50 (RPMI-8226) | GI50 (DLD-1) | GI50 (SK-OV-3) | GI50 (A498) | GI50 (IGROV-1)
N=C(N)N/N=C(/CC1OC(=O)c2ccccc21)c1ccc2ccccc2c1 (stereo not drawn) | 23.6 µM (inactive) | 7.71 µM (inactive) | 16.4 µM (inactive) | 18.9 µM (inactive) | 18.6 µM (inactive) | 14.5 µM (inactive) | > 100 µM (inactive) | 21.9 µM (inactive) | 21.6 µM (inactive) | 12.9 µM (inactive) | 24.7 µM (inactive) | 14.6 µM (inactive) | 18.1 µM (inactive) | 17.1 µM (inactive) | 14 µM (inactive) | 21.9 µM (inactive) | 16 µM (inactive) | 22.1 µM (inactive)
Cc1ccc([Se][Se]c2ccc(C)cc2)cc1 | 15.1 µM (inactive) | 12.7 µM (inactive) | 37.8 µM (inactive) | 25.3 µM (inactive) | 19.1 µM (inactive) | 32.4 µM (inactive) | 47.4 µM (inactive) | 20.5 µM (inactive) | 16.4 µM (inactive) | 11.6 µM (inactive) | 38.6 µM (inactive) | 4.76 µM (inactive) | 67.9 µM (inactive) | 5.02 µM (inactive) | 17.7 µM (inactive) | > 100 µM (inactive) | > 100 µM (inactive) | 38.3 µM (inactive)
C[C@]12Cc3cn[nH]c3C(=O)C1CC[C@@H]1C2CC[C@@]2(C)C1CC[C@]2(C)O (stereo partly drawn) | > 100 µM (inactive) | > 100 µM (inactive) | > 100 µM (inactive) | > 100 µM (inactive) | > 100 µM (inactive) | > 100 µM (inactive) | > 100 µM (inactive) | > 100 µM (inactive) | > 100 µM (inactive) | > 100 µM (inactive) | > 100 µM (inactive) | > 100 µM (inactive) | > 100 µM (inactive) | > 100 µM (inactive) | > 100 µM (inactive) | > 100 µM (inactive) | > 100 µM (inactive) | > 100 µM (inactive)
COc1ccc(C2SCC(=O)N2NC(=O)c2ccncc2)cc1F (stereo not drawn) | – | > 100 µM (inactive) | > 100 µM (inactive) | > 100 µM (inactive) | > 100 µM (inactive) | > 100 µM (inactive) | > 100 µM (inactive) | > 100 µM (inactive) | > 100 µM (inactive) | > 100 µM (inactive) | > 100 µM (inactive) | > 100 µM (inactive) | > 100 µM (inactive) | > 100 µM (inactive) | > 100 µM (inactive) | > 100 µM (inactive) | > 100 µM (inactive) | –
COc1cc(/C=C\c2ccc(Br)cc2)cc(OC)c1OC | 0.000662 µM (active) | 0.000678 µM (active) | 0.01 µM (active) | 0.000794 µM (active) | 0.1 µM (active) | 0.0024 µM (active) | 0.01 µM (active) | 0.01 µM (active) | 0.00332 µM (active) | 0.000986 µM (active) | 0.00033 µM (active) | 0.000891 µM (active) | – | 0.000582 µM (active) | 0.00324 µM (active) | 58.2 µM (inactive) | 0.01 µM (active) | 0.0124 µM (active)
CC[C@@H](C(=O)[C@@H](C)[C@@H](O)[C@H](C)CCc1ccc(C)c(O)c1C(=O)O)[C@H]1O[C@](CC)([C@H]2CC[C@](O)(CC)[C@H](C)O2)C[C@@H]1C [LASALOCID A SODIUM] | 1.1 µM (active) | 1.25 µM (inactive) | 2.04 µM (inactive) | 2.64 µM (inactive) | 1.3 µM (inactive) | 1.05 µM (active) | 1.84 µM (inactive) | 1.06 µM (active) | 1.71 µM (inactive) | 0.946 µM (active) | 1.78 µM (inactive) | 1.18 µM (inactive) | 2.79 µM (inactive) | 1.2 µM (inactive) | 3.61 µM (inactive) | 2.92 µM (inactive) | 0.573 µM (active) | 2.88 µM (inactive)
O=c1[nH]c2cc(-c3ccccc3)nc-2nn1-c1c(Cl)cc(Cl)cc1Cl | 22.5 µM (inactive) | 27.9 µM (inactive) | 30.4 µM (inactive) | – | > 100 µM (inactive) | 24.4 µM (inactive) | 27.5 µM (inactive) | 34.4 µM (inactive) | 37.3 µM (inactive) | > 100 µM (inactive) | 25.8 µM (inactive) | 30.5 µM (inactive) | 28.6 µM (inactive) | 24.3 µM (inactive) | 37.5 µM (inactive) | 25.8 µM (inactive) | 33 µM (inactive) | 38.5 µM (inactive)
COc1ccc(/C=c2\sc3nnc(CCC(=O)Nc4cccc(C(F)(F)F)c4)n3c2=O)cc1 | 4.56 µM (inactive) | > 100 µM (inactive) | > 100 µM (inactive) | > 100 µM (inactive) | > 74.3 µM (inactive) | > 100 µM (inactive) | > 79.8 µM (inactive) | > 100 µM (inactive) | > 100 µM (inactive) | > 100 µM (inactive) | > 100 µM (inactive) | > 87.1 µM (inactive) | > 100 µM (inactive) | 38.4 µM (inactive) | > 100 µM (inactive) | > 100 µM (inactive) | > 100 µM (inactive) | > 100 µM (inactive)
CC(=O)NC(CCCCN(Cc1ccccc1)C(=O)N(C)N=O)C(=O)NCc1ccccc1 (stereo not drawn) | 39.6 µM (inactive) | > 100 µM (inactive) | 88.7 µM (inactive) | > 100 µM (inactive) | > 100 µM (inactive) | 82 µM (inactive) | > 100 µM (inactive) | 83.9 µM (inactive) | 97.3 µM (inactive) | 43.6 µM (inactive) | > 100 µM (inactive) | 51.5 µM (inactive) | > 100 µM (inactive) | 40.6 µM (inactive) | > 100 µM (inactive) | > 100 µM (inactive) | > 100 µM (inactive) | > 100 µM (inactive)
